# Laboratory results as given in patent US11053250B2, “Pyrrolo[1,2-b]pyridazine derivatives” (Gilead Sciences, Inc., priority 2018, dated 2021).
# Key:
# TNFα = experiment: IRAK4 Monocyte TNFα Cell Based Assay; settings: cryopreserved human monocytes, LPS 50 pg/ml stimulation, TNFα by TR-FRET
# Description: The cell suspension was then plated at a density of 5,000 cells/well onto black 384 well Greiner clear bottom plates. Plates were pre-spotted with test compounds and serially diluted in DMSO where 40 nL/well were delivered using the Echo 550 acoustic liquid dispenser (Labcyte®) for a final DMSO concentration of 0.1%. Plated cells were treated with compound for 1 hour at 37° C. Cells were then stimulated with 50 pg/ml of LPS (Sigma) excluding outside columns of plate used for unstimulated cell control wells. Cells were incubated for an additional 4 hours at 37° C. Cells were then spun out of the media and 5 μl of sample were taken and analyzed for total TNFα content using the TR-FRET Human TNFα detection system (CisBio). This system utilizes two labeled antibodies (cryptate and XL665) that bind to two different epitopes of the TNFα molecule and produce FRET signal proportional to the concentration of TNFα in the sample. Detection antibodies are mixed 50:50 and 5 μL were dispensed into each well. Plates were covered with clear seals and incubated at room temp overnight. The following morning plates were read using an Envision 2103 Multilabeled reader (PerkinElmer) with excitation/emission/FRET emission at 340 nm/615 nm/665 nm, respectively. Fluorescence intensities at 615 nm and 665 nm emission wavelengths were expressed as a ratio (665 nm/615 nm). Percent of control was calculated as follows: % Control=100×(RatioSample−Ratio0% stimulation)/(Ratio100% Stimulation−Ratio0% stimulation) where unstimulated cells (0% stimulation) were the negative control and stimulated cells (100% stimulation) were used as the positive control.
# IRAK4 enzyme = IRAK4 enzyme (Homo sapiens (Human), UniProt Q9NWZ3); experiment: IRAK4 Biochemical Assay (TR-FRET/HTRF); settings: 0.75 nM IRAK4, 500 μM ATP, STK1 peptide
# Description: IRAK4 enzyme (Carna Biosciences, Chuo-ku, Kobe, Japan) activity was measured by detecting phosphorylated peptide substrate formation using an antibody against the phosphorylated peptide substrate. This is a time-resolved fluorescence resonance energy transfer (TR-FRET) immunoassay, based on the STK1 KinEASE Assay (Cisbio, Bedford, Mass.). The assay was designed as a simple two-step, endpoint assay (a 5 μl enzyme reaction followed by 5 μl stop and detect Solution) performed in ProxiPlate-384 Plus plates (Perkin Elmer, Waltham, Mass.). Staurosporine, a non-selective kinase inhibitor was used as a positive control. Compounds diluted in DMSO were spotted into 384 well plates using a Labcyte® Echo 550 Liquid Handling System prior to addition of IRAK4 enzyme and peptide substrate. Reaction solutions were delivered using a Multi-Flo (Bio-Tek Instruments). The enzyme and peptide solution was incubated with compound for 15 minutes at room temp before the reaction was initiated by the addition of ATP. The standard 5 μl reaction mixture contained 500 μM ATP, 2 μM peptide (STK1 Peptide), 0.75 nM of IRAK4 in reaction buffer (50 mM HEPES, pH 7.0, 0.02% NaN3, 0.01% BSA, 0.1 mM Orthovanadate, 5 mM MgCl2, 0.025% NP-40, 1 mM DTT). After 120 min of incubation at room temperature, 5 μl of Stop and Detect Solution (1:100 Cryptate labeled anti-phosphorylated peptide antibody solution and 125 nM Tracer in a 50 mM HEPES pH 7.0 detection buffer containing sufficient EDTA) was added. The plate was then further incubated for 60 minutes at room temperature and read on Envision 2103 Multilabeled reader (PerkinElmer) with excitation/emission/FRET emission at 340 nm/615 nm/665 nm, respectively. Fluorescence intensities at 615 nm and 665 nm emission wavelengths were expressed as a ratio (665 nm/615 nm). Percentage of inhibition was calculated as below: % Inhibition=100×(RatioSample−Ratio0% Inhibition)/(Ratio100% Inhibition−Ratio0% Inhibition)
# The 0% inhibition value comes from control wells lacking inhibitor. The 100% inhibition value comes from control wells containing a saturating amount of known inhibitor staurosporine.
# Sequence of IRAK4 enzyme (Q9NWZ3 whole entry): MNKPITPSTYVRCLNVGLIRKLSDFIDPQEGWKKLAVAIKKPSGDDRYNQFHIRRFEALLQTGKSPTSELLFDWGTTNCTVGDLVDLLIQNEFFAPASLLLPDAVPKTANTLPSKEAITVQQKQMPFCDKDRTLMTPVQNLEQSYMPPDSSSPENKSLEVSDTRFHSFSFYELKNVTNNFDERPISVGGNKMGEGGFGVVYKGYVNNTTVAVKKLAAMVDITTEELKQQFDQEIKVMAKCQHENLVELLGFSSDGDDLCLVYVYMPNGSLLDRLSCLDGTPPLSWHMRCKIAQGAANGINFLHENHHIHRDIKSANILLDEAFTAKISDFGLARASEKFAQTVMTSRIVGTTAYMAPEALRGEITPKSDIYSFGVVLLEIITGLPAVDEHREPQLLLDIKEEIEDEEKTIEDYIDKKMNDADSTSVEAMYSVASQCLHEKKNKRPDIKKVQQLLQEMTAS
SMILES,EC50 (TNFα; Monocyte),IC50 (IRAK4 enzyme),EC50 (TNFα)
"CC(C)Nc1cc(-c2ccc3cc(C#N)cnn23)ncc1-c1cn(C2CCNCC2)nn1 [Compound 43, 7-(4-(isopropylamino)-5-(1-(piperidin-4-yl)-1H-1,2,3-triazol-4-yl)pyridin-2-yl)pyrrolo[1,2-b]pyridazine-3-carbonitrile]",50 nM,< 1 nM,–
"CC(=O)N[C@H]1CC[C@H](c2cn(-c3cnc(-c4ccc5cc(C#N)cnn45)cc3NC(C)C)nn2)CC1 [Compound 61, N-((1r,4r)-4-(1-(6-(3-cyanopyrrolo[1,2-b]pyridazin-7-yl)-4-(isopropylamino)pyridin-3-yl)-1H-1,2,3-triazol-4-yl)cyclohexyl)acetamide]",–,2 nM,75 nM
"COC(=O)NCC1CC(Nc2cc(-c3ccc4cc(C#N)cnn34)ncc2-c2cn(C3CC(CNC(=O)OC)C3)nn2)C1 [Compound 10, methyl (((1R,3r)-3-((2-(3-cyanopyrrolo[1,2-b]pyridazin-7-yl)-5-(1-((1r,3R)-3-(((methoxycarbonyl)amino)methyl)cyclobutyl)-1H-1,2,3-triazol-4-yl)pyridin-4-yl)amino)cyclobutyl)methyl)carbamate]",–,1 nM,20 nM
"CNc1cc(-c2ccc3cc(C#N)cnn23)ncc1-c1cn([C@H]2CC[C@H](NC(=O)OC(C)(C)C)CC2)nn1 [Compound 23, tert-butyl ((1r,4r)-4-(4-(6-(3-cyanopyrrolo[1,2-b]pyridazin-7-yl)-4-(methylamino)pyridin-3-yl)-1H-1,2,3-triazol-1-yl)cyclohexyl)carbamate]",–,16 nM,–
"CC(C)(O)[C@H](F)Cn1cc(-c2cnc(-c3ccc4cc(C#N)cnn34)cc2N[C@H]2CC[C@H](c3cnn(C(F)F)c3)CC2)nn1 [Compound 15, 7-(4-(((1r,4R)-4-(1-(difluoromethyl)-1H-pyrazol-4-yl)cyclohexyl)amino)-5-(1-((R)-2-fluoro-3-hydroxy-3-methylbutyl)-1H-1,2,3-triazol-4-yl)pyridin-2-yl)pyrrolo[1,2-b]pyridazine-3-carbonitrile]",–,3 nM,18 nM
"COC(=O)NC[C@H]1C[C@H](Nc2cc(-c3ccc4cc(C#N)cnn34)ncc2-c2cn(CC(F)F)nn2)C1 [Compound 32, methyl (((1r,3r)-3-((2-(3-cyanopyrrolo[1,2-b]pyridazin-7-yl)-5-(1-(2,2-difluoroethyl)-1H-1,2,3-triazol-4-yl)pyridin-4-yl)amino)cyclobutyl)methyl)carbamate]",–,< 1 nM,38 nM
"Cn1cc(-c2cnc(-c3ccc4cc(C#N)cnn34)cc2N[C@H]2CCC[C@@H](O)C2)nn1 [Compound 12, 7-(4-(((1S,3R)-3-hydroxycyclohexyl)amino)-5-(1-methyl-1H-1,2,3-triazol-4-yl)pyridin-2-yl)pyrrolo[1,2-b]pyridazine-3-carbonitrile]",30 nM,1 nM,–
"CNc1cc(-c2ccc3cc(C#N)cnn23)ncc1-c1cn(CC(F)(F)C(C)(C)O)nn1 [Compound 28, 7-(5-(1-(2,2-difluoro-3-hydroxy-3-methylbutyl)-1H-1,2,3-triazol-4-yl)-4-(methylamino)pyridin-2-yl)pyrrolo[1,2-b]pyridazine-3-carbonitrile]",94 nM,3 nM,–
"CNc1cc(-c2ccc3cc(C#N)cnn23)ncc1-c1cn([C@H]2CC[C@H](NC(=O)N3CCOCC3)CC2)nn1 [Compound 18, N-((1r,4r)-4-(4-(6-(3-cyanopyrrolo[1,2-b]pyridazin-7-yl)-4-(methylamino)pyridin-3-yl)-1H-1,2,3-triazol-1-yl)cyclohexyl)morpholine-4-carboxamide]",–,2 nM,49 nM
"CC(C)Nc1cc(-c2ccc3cc(C#N)cnn23)ncc1-n1cc([C@H]2CC[C@H](NC(=O)OC(C)(C)C)CC2)nn1 [Compound 64, tert-butyl ((1r,4r)-4-(1-(6-(3-cyanopyrrolo[1,2-b]pyridazin-7-yl)-4-(isopropylamino)pyridin-3-yl)-1H-1,2,3-triazol-4-yl)cyclohexyl)carbamate]",–,2 nM,121 nM
"CNC(=O)Cn1cc(-c2cnc(-c3ccc4cc(C#N)cnn34)cc2NC(C)C)nn1 [Compound 45, 2-(4-(6-(3-cyanopyrrolo[1,2-b]pyridazin-7-yl)-4-(isopropylamino)pyridin-3-yl)-1H-1,2,3-triazol-1-yl)-N-methylacetamide]",85 nM,1 nM,–
"COC(=O)N1CCC(n2cc(-c3cnc(-c4ccc5cc(C#N)cnn45)cc3NC(C)C)nn2)CC1 [Compound 40, methyl 4-(4-(6-(3-cyanopyrrolo[1,2-b]pyridazin-7-yl)-4-(isopropylamino)pyridin-3-yl)-1H-1,2,3-triazol-1-yl)piperidine-1-carboxylate]",84 nM,1 nM,–
"CC(C)(O)[C@H](F)Cn1cc(-c2cnc(-c3ccc4cc(C#N)cnn34)cc2N[C@H]2CC[C@H](c3nncs3)CC2)nn1 [Compound 38, 7-(4-(((1r,4R)-4-(1,3,4-thiadiazol-2-yl)cyclohexyl)amino)-5-(1-((R)-2-fluoro-3-hydroxy-3-methylbutyl)-1H-1,2,3-triazol-4-yl)pyridin-2-yl)pyrrolo[1,2-b]pyridazine-3-carbonitrile]",–,< 1 nM,6 nM
"C[C@H](C#N)Nc1cc(-c2ccc3cc(C#N)cnn23)ncc1-c1cn(C[C@@H](F)C(C)(C)O)nn1 [Compound 1, 7-(4-(((R)-1-cyanoethyl)amino)-5-(1-((R)-2-fluoro-3-hydroxy-3-methylbutyl)-1H-1,2,3-triazol-4-yl)pyridin-2-yl)pyrrolo[1,2-b]pyridazine-3-carbonitrile]",12 nM,< 1 nM,–
"COC(=O)NC[C@H]1C[C@H](Nc2cc(-c3ccc4cc(C#N)cnn34)ncc2-c2cn(CC(F)(F)F)nn2)C1 [Compound 29, methyl (((1r,3r)-3-((2-(3-cyanopyrrolo[1,2-b]pyridazin-7-yl)-5-(1-(2,2,2-trifluoroethyl)-1H-1,2,3-triazol-4-yl)pyridin-4-yl)amino)cyclobutyl)methyl)carbamate]",–,< 1 nM,77 nM
"CC(=O)N1CCC(c2cn(-c3cnc(-c4ccc5cc(C#N)cnn45)cc3NC(C)C)nn2)CC1 [Compound 63, 7-(5-(4-(1-acetylpiperidin-4-yl)-1H-1,2,3-triazol-1-yl)-4-(isopropylamino)pyridin-2-yl)pyrrolo[1,2-b]pyridazine-3-carbonitrile]",148 nM,–,–
"COC(=O)NC[C@H]1C[C@H](Nc2cc(-c3ccc4cc(C#N)cnn34)ncc2-c2cn([C@H]3CC[C@H](NC(=O)N4CCOCC4)CC3)nn2)C1 [Compound 17, methyl (((1R,3r)-3-((2-(3-cyanopyrrolo[1,2-b]pyridazin-7-yl)-5-(1-((1r,4R)-4-(morpholine-4-carboxamido)cyclohexyl)-1H-1,2,3-triazol-4-yl)pyridin-4-yl)amino)cyclobutyl)methyl)carbamate]",5 nM,–,–
"CC(C)(O)CCn1cc(-c2cnc(-c3ccc4cc(C#N)cnn34)cc2NC2COC2)nn1 [Compound 11, 7-(5-(1-(3-hydroxy-3-methylbutyl)-1H-1,2,3-triazol-4-yl)-4-(oxetan-3-ylamino)pyridin-2-yl)pyrrolo[1,2-b]pyridazine-3-carbonitrile]",28 nM,–,–
"CC(C)Nc1cc(-c2ccc3cc(C#N)cnn23)ncc1-n1cc(CCC(C)(C)O)nn1 [Compound 62, 7-(5-(4-(3-hydroxy-3-methylbutyl)-1H-1,2,3-triazol-1-yl)-4-(isopropylamino)pyridin-2-yl)pyrrolo[1,2-b]pyridazine-3-carbonitrile]",31 nM,–,–
